Results as given in article PMC6470953, “Symmetrical Modification of Minimized Dermaseptins to Extend the Spectrum of Antimicrobials with Endotoxin Neutralization Potency” (International Journal of Molecular Sciences, 2019).
Like-named read-outs stand apart in the source and are kept apart here. Where no end group is shown, it is not given here.

What was measured:
[1] = system: Gram-negative and Gram-positive bacteria; experiment: Geometric mean of MIC values over the bacteria tested; format: cell-based; conditions: MIC >128 μM counted as 256 μM
Procedure: (§1) MIC measurements were performed in 96-well plates. The peptides were dissolved in 0.2% bovine serum albumin and 0.01% acetic acid, and an appropriate broth was subjected to a series of two-fold dilutions. The final concentration of microbial suspensions was from 2 × 10^5 to 7 × 10^5 colony forming units (CFU)∙mL^−1. Key parameters were volume (50 μL bacterial suspension + 50 μL peptide solution), incubating time (18–24 h), and temperature (37 °C). Each test was performed in three replicates on at least two independent occasions. The Mueller Hilton broth (MHB) (AoBoX, Shanghai, China) without or with microbial cells was regarded as the negative control or positive control, respectively. MICs were recorded at the lowest peptide concentration without visible turbidity and spectrophotometrically by measuring the optical density (OD) at 492 nm (Tecan, Salzburg, Austria).

E. coli ATCC 25922 = experiment: FACScan membrane integrity analysis (propidium iodide); format: cell-based; conditions: E. coli ATCC 25922, 10 μg/mL PI, 4 °C, 30 min, flow cytometry
Procedure: The membrane integrity measurements were performed with a FACScan instrument (Bectone-Dickinson, San Jose, CA, USA) by using a modified method as described previously. […] As a control, bacteria were exposed to PBS without the peptide. The gate (P1) was defined based on the FSC and SSC properties of E. coli. The FSC threshold was appropriately raised to include the large cell events in the sample and excluded the debris population. Data acquisition was performed using […] Software (Becton Dickinson, San Jose, CA, USA) with a stopping gate of 10,000 total events. Observations were repeated three times at a laser excitation wavelength of 488 nm. Based on the ability of flow cytometers to provide accurate quantification of cell numbers, the counts of PI-positive cells were measured for each peptide.

[2] = LPS binding, BODIPY-TR cadaverine displacement assay; set-up: species or system E. coli; conditions: LPS 100 ng/mL, peptide 1.25–40 μg/mL, 1 h, 37 °C, Tris pH 7.4
Procedure: BODIPY-TR-cadaverine fluorescent dye (BC, Sigma, USA) was used to determine the LPS neutralizing activity of the peptides. A total of 100 ng/mL LPS from E. coli O111:B4 was incubated with 5 μg/mL BC in Tris buffer (50 mM, pH 7.4) for 4 h at room temperature. The peptides were serially diluted to different concentrations (1.25–40 μg/mL) in a 96-well plate and incubated with an equal volume of the LPS-probe mixture for 1 h at 37 °C. The fluorescence was recorded (excitation λ = 580 nm, emission λ = 620 nm) with a spectrofluorophotometer (the Infinite 200 pro, Tecan, China). The values were converted to %ΔF (AU) using the following equation:%ΔF (AU) = (Fobs − F0) / (F100 − F0) × 100 where F0 is the initial fluorescence of BC with LPS; F100 is the BC fluorescence with LPS cells upon the addition of 10 μg∙mL^−1 polymyxin B (the positive control); and Fobs is the observed fluorescence at a given peptide concentration.

interleukin-6(IL-6) = experiment: LPS-induced IL-6 gene expression (qRT-PCR) in RAW264.7; format: cell-based, murine; conditions: RAW264.7, 100 ng/mL LPS, peptide 10 μg/mL, n = 3
Procedure: (§2) The RAW264.7 cell culture was prepared using the same method as the cytotoxicity assay. The cells were seeded in 12 wells plates at a given density (5 × 10^5 cells per well); after overnight culture, 100 ng·mL^−1 LPS from E. coli 0111:B4 was added to stimulate the generation of cytokines in the presence or absence of the peptides at concentrations of 10 μg·mL^−1. The mRNA levels of IL-6 and IL-1β were determined by quantitative real-time PCR(qRT-PCR) as previously described. The total RNA was isolated from the RAW264.7 cells using TRIzol according to the manufacturer’s instructions. Total RNA (1 µg) was reverse transcribed by the M-MLV Reverse Transcriptase (Thermo scientific, Waltham, MA, USA). The reactions were incubated in chronological arrangement with the following parameters: at 25 °C for 20 min, at 42 °C for 60 min, and at 70 °C for 10 min. The obtained cDNA samples were determined by qRT-PCR with SYBR green I fluorescence dye (Takara Bio Inc., Kusatsu, Japan). Relative quantifications of the mRNA expression of the target genes were calculated through the comparative threshold cycle number for each sample (2^−ΔΔCT). Gene expression was normalized to the corresponding β-actin level. The primers for qRT-PCR in this study are shown below: IL-6-F: […]; IL-6-R: […]; IL-1β-F: […]; and IL-1β-R: […].

interleukin-1β(IL-1β) = experiment: LPS-induced IL-1β gene expression (qRT-PCR) in RAW264.7; format: cell-based, murine; conditions: RAW264.7, 100 ng/mL LPS, peptide 10 μg/mL, n = 3
Procedure: as §2

B. subtilis CMCC 63501 [3] = conditions: cited from earlier work
Source text: (§3) Table 2 MICs and therapeutic index of the peptides. | column: KL4A6 [9]

E. coli ATCC25922 [4] = conditions: cited from earlier work
Source text: as §3

E. coli UB1005 [5] = conditions: cited from earlier work
Source text: as §3

[6] = system: Gram-negative and Gram-positive bacteria; conditions: MIC >128 μM counted as 256 μM; cited from earlier work
Source text: as §3

P. aeruginosa ATCC 27853 [7] = conditions: cited from earlier work
Source text: as §3

S. aureus ATCC 29213 [8] = conditions: cited from earlier work
Source text: as §3

[9] = system: S. epidermidis ATCC 12228; conditions: cited from earlier work
Source text: as §3

S. faecalis ATCC 29212 [10] = conditions: cited from earlier work
Source text: as §3

S. pullorum C79-13 [11] = conditions: cited from earlier work
Source text: as §3

[12] = system: S. typhimurium ATCC 14028; conditions: cited from earlier work
Source text: as §3

[13] = system: human red blood cells (hRBCs); conditions: lowest peptide concentration that induces 5% hemolysis; cited from earlier work
Source text: as §3

E. coli ATCC25922 [14] = experiment: MIC assay, E. coli ATCC25922; format: cell-based; conditions: two-fold dilution in 96-well plates, MHB, 2-7 × 10^5 CFU/mL, 18–24 h, 37 °C, three replicates on at least two occasions
Procedure: as §1

E. coli UB1005 [15] = experiment: MIC assay, E. coli UB1005; format: cell-based; conditions: two-fold dilution in 96-well plates, MHB, 2-7 × 10^5 CFU/mL, 18–24 h, 37 °C
Procedure: as §1

P. aeruginosa ATCC 27853 [16] = experiment: MIC assay, P. aeruginosa ATCC 27853; format: cell-based; conditions: two-fold dilution in 96-well plates, MHB, 2-7 × 10^5 CFU/mL, 18–24 h, 37 °C
Procedure: as §1

[17] = system: S. typhimurium ATCC 14028; experiment: MIC assay, S. typhimurium ATCC 14028; format: cell-based; conditions: two-fold dilution in 96-well plates, MHB, 2-7 × 10^5 CFU/mL, 18–24 h, 37 °C
Procedure: as §1

S. pullorum C79-13 [18] = experiment: MIC assay, S. pullorum C79-13; format: cell-based; conditions: two-fold dilution in 96-well plates, MHB, 2-7 × 10^5 CFU/mL, 18–24 h, 37 °C
Procedure: as §1

S. aureus ATCC 29213 [19] = experiment: MIC assay, S. aureus ATCC 29213; format: cell-based; conditions: two-fold dilution in 96-well plates, MHB, 2-7 × 10^5 CFU/mL, 18–24 h, 37 °C
Procedure: as §1

[20] = system: S. epidermidis ATCC 12228; experiment: MIC assay, S. epidermidis ATCC 12228; format: cell-based; conditions: two-fold dilution in 96-well plates, MHB, 2-7 × 10^5 CFU/mL, 18–24 h, 37 °C
Procedure: as §1

S. faecalis ATCC 29212 [21] = experiment: MIC assay, S. faecalis ATCC 29212; format: cell-based; conditions: two-fold dilution in 96-well plates, MHB, 2-7 × 10^5 CFU/mL, 18–24 h, 37 °C
Procedure: as §1

B. subtilis CMCC 63501 [22] = experiment: MIC assay, B. subtilis CMCC 63501; format: cell-based; conditions: two-fold dilution in 96-well plates, MHB, 2-7 × 10^5 CFU/mL, 18–24 h, 37 °C
Procedure: as §1

[23] = system: human red blood cells (hRBCs); experiment: Hemolytic activity assay; format: cell-based; conditions: lowest peptide concentration that induces 5% hemolysis; hRBCs in PBS pH 7.4, 1 h, 37 °C, OD570
Procedure: Hemolytic activity measurements were performed to evaluate the effect of peptides on hemoglobin release levels by erythrocyte lysis. The experimental protocol was reviewed and approved by the ethics committee of the Northeast Agricultural University Hospital, and the experimental method was carried out in accordance with the approved guidelines and regulations. A total of 1 mL of fresh hRBCs was collected and diluted 10-fold with PBS (pH 7.4). A quantity of 50 μL of the hRBCs solution was incubated with 50 μL of serially diluted peptides dissolved in PBS for 1 h at 37 °C. hRBC suspension treated with 0.1% Triton X-100 was employed as a positive control and an untreated hRBC suspension was used as a negative control. A total of 50 μL of the supernatant was collected from the mixture after centrifugation (1000g, 5 min, 4 °C) and transferred to a new 96-well microplate. The percent hemolysis was calculated using the following equation: Hemolysis (%) = [(OD570 of the treated sample — OD570 of the negative control)/(OD570 of the positive control — OD570 of the negative control)] × 100%.

[24] = system: murine macrophage cell line (RAW264.7); experiment: MTT cytotoxicity assay, RAW264.7; format: cell-based; conditions: RAW264.7, peptide 64 μM, 18–24 h, 37 °C, OD 570 nm, n = 3
Procedure: (§4) The Roswell Park Memorial Institute-1640 (RPMI-1640) (Invitrogen, Carlsbad, CA, USA) and Dulbecco’s modified Eagle’s medium-high glucose (DMEM) (Gibco, China) were supplemented with 100 μg∙mL^−1 streptomycin sulfate, 100 U∙mL^−1 penicillin, and 10% (v/v) fetal bovine serum (Hyclone, Logan, UT, USA). These were used to culture the RAW264.7 and HEK293T cells, respectively. The peptides were added to cell cultures (1.0–2.0 × 10^4 cells/well) at different final concentrations (1–64 µM) in 96-well plates for 18–24 h at 37 °C in 5% CO2, and 3-(4,5-dimethylthiazol-2-yl)-2,5-diphenyltetrazolium bromide (MTT) (50 µL, 0.5 mg∙mL^−1) was injected and incubated with cell cultures for 4 h at 37 °C. Finally, the centrifuged cells without the supernatants were mixed with 150 µL of dimethyl sulfoxide to dissolve the formazan crystals that formed. The optical density (OD) was recorded by a microplate reader (Tecan, Salzburg, Austria) at 570 nm.

[25] = system: human embryonic kidney cells (HEK293T); experiment: MTT cytotoxicity assay, HEK293T; format: cell-based; conditions: peptide 64 μM, 18–24 h, 37 °C, OD 570 nm, n = 3
Procedure: as §4

Molecule	MIC (E. coli ATCC25922 [14])	MIC (E. coli UB1005 [15])	MIC (P. aeruginosa ATCC 27853 [16])	MIC [17]	MIC (S. pullorum C79-13 [18])	MIC (S. aureus ATCC 29213 [19])	MIC [20]	MIC (S. faecalis ATCC 29212 [21])	MIC (B. subtilis CMCC 63501 [22])	MHC5 (minimum hemolysis concentration 5%) [23]	cell survival rate [24]	cell survival rate [25]	further results
CC[C@H](C)[C@H](NC(=O)CN)C(=O)NCC(=O)N[C@@H](C)C(=O)N[C@H](C(=O)N[C@@H](CC(C)C)C(=O)N[C@@H](CCCCN)C(=O)N[C@H](C(=O)N[C@@H](CC(C)C)C(=O)N[C@H](C(=O)N[C@H](C(=O)NCC(=O)N[C@@H](CC(C)C)C(=O)N1CCC[C@H]1C(=O)N[C@@H](C)C(=O)N[C@@H](CC(C)C)C(=O)N[C@H](C(=O)N[C@@H](CO)C(=O)N[C@@H](Cc1c[nH]c2ccccc12)C(=O)N[C@H](C(=O)N[C@@H](CCCCN)C(=O)N[C@@H](CCCNC(=N)N)C(=O)N[C@@H](CCCCN)C(=O)N[C@@H](CCCNC(=N)N)C(=O)N[C@@H](CCC(N)=O)C(=O)N[C@@H](CCC(N)=O)C(N)=O)[C@@H](C)CC)[C@@H](C)CC)[C@@H](C)O)[C@@H](C)O)C(C)C)C(C)C [Melittin]													GM (geometric mean of MIC values) [1]: 1.3 µM; percentage of PI-positive cells (E. coli ATCC 25922; 1/2 × MIC): 50.5%; percentage of PI-positive cells (E. coli ATCC 25922; 1 × MIC): 77.5%; binding to LPS, %ΔF (AU) of BODIPY-TR cadaverine [2]: concentration-dependent increase; gene expression of IL-6 in LPS-treated cells (interleukin-6(IL-6)): markedly decreased; gene expression of IL-1β in LPS-treated cells (interleukin-1β(IL-1β)): markedly decreased
LLKAAAKAAAKLL-NH2 [KL4A6]													MIC (B. subtilis CMCC 63501 [3]): 32 µM; MIC (E. coli ATCC25922 [4]): 2 µM; MIC (E. coli UB1005 [5]): 32 µM; GM (geometric mean of MIC values) [6]: 59.3 µM; MIC (P. aeruginosa ATCC 27853 [7]): >128 µM; MIC (S. aureus ATCC 29213 [8]): >128 µM; MIC [9]: 128 µM; MIC (S. faecalis ATCC 29212 [10]): 16 µM; MIC (S. pullorum C79-13 [11]): >128 µM; MIC [12]: 128 µM; MHC5 (minimum hemolysis concentration 5%) [13]: >256 µM
WFKAAAKAAAKFW-NH2 [WF]	4 µM	4 µM	16 µM	32 µM	8 µM	8 µM	16 µM	32 µM	8 µM	256 µM	92%	91%	
WIKAAAKAAAKIW-NH2 [WI]	8 µM	8 µM	32 µM	32 µM	8 µM	32 µM	32 µM	32 µM	8 µM	256 µM	100%	96%	
WVKAAAKAAAKVW-NH2 [WV]	32 µM	>128 µM	>128 µM	>128 µM	64 µM	>128 µM	>128 µM	64 µM	>128 µM	>256 µM	93%	93%	
WWKAAAKAAAKWW-NH2 [WW]	2 µM	4 µM	8 µM	8 µM	2 µM	4 µM	4 µM	4 µM	4 µM	256 µM	63%	43%	
